In patent US20160122820A1, “Screening Method for Identifying Active Agents” (Avon Products, Inc., priority 2014, published 2016):

Tested on: human skin
Details: for CYP7B1 gene expression (fold change): in vivo; for BIRC3 gene expression (fold change) / C1orf162 gene expression (fold change) / CCR2 gene expression (fold change) / CD1B gene expression (fold change) / CD2 gene expression (fold change) / CD53 gene expression (fold change) / CD86 gene expression (fold change) / CD226 gene expression (fold change) / CHRM4 gene expression (fold change) / CLEC7A gene expression (fold change) / COL3A1 gene expression (fold change) / COL5A2 gene expression (fold change) / COL6A6 gene expression (fold change) / COL14A1 gene expression (fold change) / CTSS gene expression (fold change) / CYBB gene expression (fold change) / CYTIP gene expression (fold change) / DIO2 gene expression (fold change) / EVI2B gene expression (fold change) / FAP gene expression (fold change) / FCGR2A gene expression (fold change) / FPR3 gene expression (fold change) / FYB gene expression (fold change) / GDPD2 gene expression (fold change) / GLIPR1 gene expression (fold change) / GMFG gene expression (fold change) / GPR174 gene expression (fold change) / GZMK gene expression (fold change) / HIST1H3A gene expression (fold change) / HLA-DPA1 gene expression (fold change) / HLA-DQA1 gene expression (fold change) / HLA-DRA gene expression (fold change) / IFI44L gene expression (fold change) / IFI44 gene expression (fold change) / IL33 gene expression (fold change) / IRF8 gene expression (fold change) / KIAA0226L gene expression (fold change) / KLRB1 gene expression (fold change) / LYZ gene expression (fold change) / MIRLET7C gene expression (fold change) / MNDA gene expression (fold change) / OCA2 gene expression (fold change) / PARP14 gene expression (fold change) / PCSK2 gene expression (fold change) / PLAC8 gene expression (fold change) / PLEK gene expression (fold change) / PTPRC gene expression (fold change) / RGS1 gene expression (fold change) / RNASE6 gene expression (fold change) / SAMD9 gene expression (fold change) / SELL gene expression (fold change) / SPP1 gene expression (fold change) / SRGN gene expression (fold change) / ST8SIA4 gene expression (fold change) / TPPP gene expression (fold change) / TRPM1 gene expression (fold change) / UGT2A1 gene expression (fold change) / VCAM1 gene expression (fold change): photodamaged forearm skin, 0.02% partially occlusive patch 30 days, 30-day biopsy relative to baseline, negative = downregulated

Compound: CC1=C(/C=C/C(C)=C/C=C/C(C)=C/C(=O)O)C(C)(C)CCC1 [RA, retinoic acid]
- CYP7B1 gene expression (fold change): 1.320 fold change
- BIRC3 gene expression (fold change): 1.555 fold change
- C1orf162 gene expression (fold change): 1.356 fold change
- CCR2 gene expression (fold change): 1.658 fold change
- CD1B gene expression (fold change): 1.510 fold change
- CD2 gene expression (fold change): 1.339 fold change
- CD53 gene expression (fold change): 1.586 fold change
- CD86 gene expression (fold change): 1.468 fold change
- CD226 gene expression (fold change): 1.423 fold change
- CHRM4 gene expression (fold change): −1.326 fold change
- CLEC7A gene expression (fold change): 1.964 fold change
- COL3A1 gene expression (fold change): 1.443 fold change
- COL5A2 gene expression (fold change): 1.369 fold change
- COL6A6 gene expression (fold change): 2.091 fold change
- COL14A1 gene expression (fold change): 1.311 fold change
- CTSS gene expression (fold change): 1.302 fold change
- CYBB gene expression (fold change): 1.637 fold change
- CYTIP gene expression (fold change): 1.336 fold change
- DIO2 gene expression (fold change): −1.548 fold change
- EVI2B gene expression (fold change): 1.405 fold change
- FAP gene expression (fold change): 1.370 fold change
- FCGR2A gene expression (fold change): 1.366 fold change
- FPR3 gene expression (fold change): 1.439 fold change
- FYB gene expression (fold change): 1.483 fold change
- GDPD2 gene expression (fold change): −2.585 fold change
- GLIPR1 gene expression (fold change): 1.422 fold change
- GMFG gene expression (fold change): 1.358 fold change
- GPR174 gene expression (fold change): 1.411 fold change
- GZMK gene expression (fold change): 1.571 fold change
- HIST1H3A gene expression (fold change): 1.375 fold change
- HLA-DPA1 gene expression (fold change): 1.466 fold change
- HLA-DQA1 gene expression (fold change): 1.594 fold change
- HLA-DRA gene expression (fold change): 1.403 fold change
- IFI44L gene expression (fold change): 1.472 fold change
- IFI44 gene expression (fold change): 1.337 fold change
- IL33 gene expression (fold change): 1.587 fold change
- IRF8 gene expression (fold change): 1.725 fold change
- KIAA0226L gene expression (fold change): 1.307 fold change
- KLRB1 gene expression (fold change): 1.363 fold change
- LYZ gene expression (fold change): 2.271 fold change
- MIRLET7C gene expression (fold change): −1.319 fold change
- MNDA gene expression (fold change): 1.406 fold change
- OCA2 gene expression (fold change): −1.432 fold change
- PARP14 gene expression (fold change): 1.364 fold change
- PCSK2 gene expression (fold change): −1.825 fold change
- PLAC8 gene expression (fold change): 1.844 fold change
- PLEK gene expression (fold change): 1.667 fold change
- PTPRC gene expression (fold change): 1.606 fold change
- RGS1 gene expression (fold change): 1.503 fold change
- RNASE6 gene expression (fold change): 1.540 fold change
- SAMD9 gene expression (fold change): 5.339 fold change
- SELL gene expression (fold change): 1.691 fold change
- SPP1 gene expression (fold change): 1.416 fold change
- SRGN gene expression (fold change): 1.569 fold change
- ST8SIA4 gene expression (fold change): 1.389 fold change
- TPPP gene expression (fold change): −1.402 fold change
- TRPM1 gene expression (fold change): −1.306 fold change
- UGT2A1 gene expression (fold change): −1.369 fold change
- VCAM1 gene expression (fold change): 1.730 fold change

Compound: CC1=C(/C=C/C(C)=C/C=C/C(C)=C/CO)C(C)(C)CCC1 [Retinol, retinol]
- CYP7B1 gene expression (fold change): 1.309 fold change
- BIRC3 gene expression (fold change): 1.815 fold change
- C1orf162 gene expression (fold change): 1.301 fold change
- CCR2 gene expression (fold change): 1.416 fold change
- CD1B gene expression (fold change): 1.844 fold change
- CD2 gene expression (fold change): 1.311 fold change
- CD53 gene expression (fold change): 1.483 fold change
- CD86 gene expression (fold change): 1.348 fold change
- CD226 gene expression (fold change): 1.396 fold change
- CHRM4 gene expression (fold change): −1.401 fold change
- CLEC7A gene expression (fold change): 1.502 fold change
- COL3A1 gene expression (fold change): 1.455 fold change
- COL5A2 gene expression (fold change): 1.380 fold change
- COL6A6 gene expression (fold change): 2.245 fold change
- COL14A1 gene expression (fold change): 1.408 fold change
- CTSS gene expression (fold change): 1.514 fold change
- CYBB gene expression (fold change): 1.413 fold change
- CYTIP gene expression (fold change): 1.481 fold change
- DIO2 gene expression (fold change): −1.384 fold change
- EVI2B gene expression (fold change): 1.323 fold change
- FAP gene expression (fold change): 1.518 fold change
- FCGR2A gene expression (fold change): 1.346 fold change
- FPR3 gene expression (fold change): 1.321 fold change
- FYB gene expression (fold change): 1.404 fold change
- GDPD2 gene expression (fold change): −1.363 fold change
- GLIPR1 gene expression (fold change): 1.450 fold change
- GMFG gene expression (fold change): 1.300 fold change
- GPR174 gene expression (fold change): 1.339 fold change
- GZMK gene expression (fold change): 1.402 fold change
- HIST1H3A gene expression (fold change): −1.363 fold change
- HLA-DPA1 gene expression (fold change): 1.364 fold change
- HLA-DQA1 gene expression (fold change): 1.378 fold change
- HLA-DRA gene expression (fold change): 1.439 fold change
- IFI44L gene expression (fold change): 1.320 fold change
- IFI44 gene expression (fold change): 1.429 fold change
- IL33 gene expression (fold change): 1.360 fold change
- IRF8 gene expression (fold change): 1.392 fold change
- KIAA0226L gene expression (fold change): 1.371 fold change
- KLRB1 gene expression (fold change): 1.377 fold change
- LYZ gene expression (fold change): 1.603 fold change
- MIRLET7C gene expression (fold change): 1.366 fold change
- MNDA gene expression (fold change): 1.805 fold change
- OCA2 gene expression (fold change): −1.334 fold change
- PARP14 gene expression (fold change): 1.356 fold change
- PCSK2 gene expression (fold change): −1.566 fold change
- PLAC8 gene expression (fold change): 1.434 fold change
- PLEK gene expression (fold change): 1.449 fold change
- PTPRC gene expression (fold change): 1.446 fold change
- RGS1 gene expression (fold change): 1.379 fold change
- RNASE6 gene expression (fold change): 1.452 fold change
- SAMD9 gene expression (fold change): 1.382 fold change
- SELL gene expression (fold change): 1.304 fold change
- SPP1 gene expression (fold change): 1.604 fold change
- SRGN gene expression (fold change): 1.353 fold change
- ST8SIA4 gene expression (fold change): 1.366 fold change
- TPPP gene expression (fold change): −1.328 fold change
- TRPM1 gene expression (fold change): −1.431 fold change
- UGT2A1 gene expression (fold change): −1.696 fold change
- VCAM1 gene expression (fold change): 1.357 fold change
